Columns and labels:
Type in all cases: in vitro ADME
[1] = Hepatic phase I metabolism, incubation with horse liver microsomes and NADPH-regenerating system; conditions: for identified pI metabolites: horse liver microsomes 5 mg/mL, 0.04 mg/mL PSD, 90 min, 37 °C, HPLC-Orbitrap-HRMS; for extent of pI transformation / metabolite formation: horse microsomes compared with human microsomes
[2] = Hepatic phase I metabolism, incubation with human liver microsomes and NADPH-regenerating system; conditions: for main pI metabolite: human liver microsomes 5 mg/mL, 0.04 mg/mL PSD, 90 min, 37 °C, HPLC-DAD-Orbitrap-HRMS
[3] = Hepatic phase II metabolism (glucuronidation), horse liver microsomes with UDPGA; conditions: UDPGA 0.3 mM, 0.02 mg/mL PSD, 90 min, HPLC-Orbitrap-HRMS
[4] = Hepatic phase II metabolism (glucuronidation), human liver microsomes with UDPGA
[5] = Hepatic phase II metabolism (sulfation), horse liver cytosol with PAPS; conditions: horse cytosol compared with human cytosol (Figure 7b)
[6] = Hepatic phase II metabolism (sulfation), human liver cytosol with PAPS; conditions: HPLC-QTOF-HRMS

Row | SMILES | identified pI metabolites [1] | extent of pI transformation / metabolite formation [1] | main pI metabolite [2] | also measured
1 | C[C@@H]1CC[C@H]2C(C)(C)[C@H](O)CC[C@]2(C)[C@@]12Cc1c(O)cc3c(c1O2)CNC3=O [STLAC, stachybotrylactam] | all but the desaturated metabolites were formed | comparable to human microsomes | oxidized metabolites ([+O]) | –
2 | CC(=O)O[C@@H]1[C@H](OC(C)=O)C[C@@]2(C)[C@@H](CC[C@@H](C)[C@]23Cc2c(OC4O[C@H](C(=O)O)[C@@H](O)[C@H](O)[C@H]4O)cc(CO)c(C=O)c2O3)C1(C)C (stereo partly shown) [STBON D +GlcA] | – | – | – | glucuronide (+GlcA) formation [3]: identified; glucuronide (+GlcA) formation ([4]; human microsomes, UDPGA 0.3 mM, 0.02 mg/mL PSD, 90 min, HPLC-Orbitrap-HRMS): identified
3 | C[C@@H]1CC[C@H]2C(C)(C)[C@H](O)CC[C@]2(C)[C@@]12Cc1c(O)cc(CO)c(C=O)c1O2 [L-671, L-671,667] | L-671 [+O2–H2] could not be detected | – | – | conversion in sulfation experiments [5]: Opposite observations; variation in potential pI metabolites ([2]; HPLC-Orbitrap-HRMS experiments, compared among the four PSDs): largest variation in potential pI metabolites; abundance of sulfate signals among the PSDs [6]: most abundant sulfate signals; number of signals in the XIC of the sulfate (isomers) [6]: two signals
4 | CC(=O)O[C@@H]1[C@H](OC(C)=O)C[C@@]2(C)[C@@H](CC[C@@H](C)[C@]23Cc2c(O)cc(CO)c(C=O)c2O3)C1(C)C [STBON D, stachybonoid D] | only the metabolites STBON D [+O–H2] and STBON D [+O] were identified | – | oxidized metabolites ([+O]) | conversion in glucuronidation experiments ([4]; human microsomes compared with horse microsomes, 90 min (Figure 7a)): higher signals for STBON D +GlcA and lower signals of the respective parental compound
5 | C[C@@H]1CC[C@H]2C(C)(C)[C@H](O)CC[C@]2(C)[C@@]12Cc1c(O)cc(C=O)c(C=O)c1O2 [STDIAL, stachybotrydial] | all but the desaturated metabolites were formed | comparable to human microsomes | STDIAL [+O–H4] | –

From article PMC9227918 (Toxins, 2022)
